Data on 51 compounds can be found in PubChem BioAssay AID1996.

Values after ≈ are worked out from the molar mass of the structure shown. A value given as a limit tells only on which side of the number the result lay.

What is called solubility (kinetic) is solubility judged after dilution from a stock solution rather than from solid.

The conditions of the data set: buffer; pH 7.4; 200.0 µM.
On to `O=C(NCc1cccc(C(F)(F)F)c1)c1ccc2c(c1)OCCO2`, for which the solubility (kinetic) worked out at 6.1 µg/mL (≈ 18.1 µM).

For the compound `Cc1cc(C)nc(NC(=O)c2ccc(Br)s2)n1`, the solubility (kinetic) was greater than 46.8 µg/mL.

For `CCOC(=O)C1CCN(C(=O)c2ccc(C)o2)CC1`, the kinetic solubility is greater than 39.8 µg/mL.

As to `CC1CCCN(S(=O)(=O)c2cnc[nH]2)C1` (stereo unspecified), the kinetic solubility is greater than 34.4 µg/mL. Take `CC(=O)Nc1ccc(NC(=O)CSc2nc3ccccc3c(=O)n2CCCN2CCOCC2)cc1`: the kinetic solubility was 70.9 µg/mL (≈ 143 µM). `COc1ccc(-c2cc(C(=O)Nc3ccccc3O)c3ccccc3n2)cc1`: the kinetic solubility is less than 0.4 µg/mL. In turn, `COC(=O)Cn1cc(C=C2C(=O)N(C)C(=O)N(C)C2=O)c2ccccc21` showed a solubility (kinetic) of 3.8 µg/mL (≈ 10.7 µM). The result for `N#Cc1ccc2c(c1)nc1ccccn12` reads greater than 29 µg/mL. As for `CC12CN3CC(C)(CN(C1)C3c1ccccc1)C2O` (stereo unspecified), the solubility (kinetic) was greater than 38.8 µg/mL. Turning to `CCOC(=O)c1sc(=NC(=O)c2ccc(C)cc2)n(C)c1C`, the kinetic solubility is less than 0.3 µg/mL. As to `Cc1ccc(C(=O)COC(=O)CCNS(=O)(=O)c2ccccc2F)cc1`, the kinetic solubility is greater than 56.9 µg/mL. Compound `CSc1ccccc1NC(=O)c1csc(C)c1` registered a solubility (kinetic) of 30 µg/mL (≈ 114 µM). Compound `C=CCNC(=O)c1c(O)c2cccc3c2n(c1=O)CCC3` gave a solubility (kinetic) of less than 0.3 µg/mL. As to `O=C(Nc1cccnc1Cl)c1cc(-c2cccc(O)c2)on1`, the solubility (kinetic) worked out at 0.3 µg/mL (≈ 0.95 µM). Then `CC(=O)CSc1ccc(-c2nc3cc(C)c(C)cc3[nH]2)cn1`, with 3.9 µg/mL (≈ 12.5 µM); and `CCCCN(c1ccccc1)S(=O)(=O)c1cccc2cccnc12`, with 9 µg/mL (≈ 26.4 µM); and `Cc1ccc(C(=O)OCC(=O)NCCN2C(=O)CSC2=O)cc1[N+](=O)[O-]`, with greater than 57.2 µg/mL.

Regarding `Cc1cc(NC(=O)C2CC(=O)N(c3ccccc3C)C2)no1` (stereo unspecified), the solubility (kinetic) was greater than 44.9 µg/mL. `CCc1c(O)nc(SCC(=O)N(CC)CC)[nH]c1=O` came in with a solubility (kinetic) greater than 42.8 µg/mL. As to `CN1C(=O)N(c2nnc(C(C)(C)C)s2)C(=O)C1c1ccccc1` (stereo unspecified), the solubility (kinetic) is greater than 49.6 µg/mL. As to `CCCn1c(Oc2ccccc2)nc2c1c(=O)n(C)c(=O)n2C`, the kinetic solubility was 45 µg/mL (≈ 143 µM). Then `Cc1ccc(S(=O)(=O)N2CCOCC2)cc1C(=O)N1CCc2ccccc21`, with 54.3 µg/mL (≈ 141 µM). The result for `CCc1sc(C(=O)NCc2ccco2)cc1Br` reads 25.9 µg/mL (≈ 82.4 µM). `Cc1ccc(NC(=O)C(=O)NCC2CCCO2)cc1C` (stereo unspecified) yielded a solubility (kinetic) greater than 41.5 µg/mL. In turn, `N#C/C(=C\c1ccccc1)C(=O)Nc1ccccn1` had a kinetic solubility greater than 37.4 µg/mL. On to `COc1ccc(/C=C/C(=O)OCC(=O)c2ccc[nH]2)cc1`, for which the kinetic solubility is 5 µg/mL (≈ 17.5 µM).

Regarding `COc1ccc(Nc2c(-c3ccco3)nc3cccc(C)n23)cc1`, the solubility (kinetic) amounted to 1.2 µg/mL (≈ 3.76 µM). The result for `Cc1ccc(NC(=S)N2CCCCC2CO)cc1C` (stereo unspecified) reads greater than 41.8 µg/mL. As for `Clc1nc(NC2CCCC2)nc(N2CCOCC2)n1`, the kinetic solubility came out at 5.1 µg/mL (≈ 18 µM). The result for `CN(C)CCN=Cc1c(O)n(Cc2ccc3c(c2)OCO3)c(=O)c2ccccc12` reads 16.3 µg/mL (≈ 41.4 µM); that for `O=C(OCC(=O)N1CCOCC1)c1ccc(Cl)c(S(=O)(=O)N2CCc3ccccc32)c1`, 32.4 µg/mL (≈ 69.7 µM). On to `COc1ccc(C(=O)NCCCNC(=O)c2cccnc2)cc1OC`, for which the solubility (kinetic) amounted to 44.5 µg/mL (≈ 130 µM).

For `CCOCCN(C(=O)c1ccccc1Cl)c1ccccc1`, the kinetic solubility was 41.1 µg/mL (≈ 135 µM). The result for `CCOc1cc(/C=N/NC(=O)C2CCCC2)ccc1O` reads greater than 41.5 µg/mL.

On to `O=C(O)c1ccc(S(=O)(=O)NC2CC2)cc1`, for which the kinetic solubility is greater than 36.2 µg/mL. Compound `Cc1cc(C)n(/C(=C/N(C)C)C(=O)c2ccccc2)n1` registered a kinetic solubility greater than 40.4 µg/mL. `O=S(=O)(NCc1ccccc1)c1cccc2nsnc12` gave a solubility (kinetic) of 44.2 µg/mL (≈ 145 µM). The result for `CC(C)NCC(O)COc1cccc2[nH]ccc12` (stereo unspecified) reads greater than 37.2 µg/mL; that for `O=C(CN1C(=O)NC2(CCCCCC2)C1=O)NCCc1ccccc1`, greater than 51.5 µg/mL; that for `COC(=O)c1ccc(NC(=S)N2CCN(C)CC2)cc1`, greater than 44 µg/mL. With `O=C(O/N=C/c1ccc2c(c1)OCO2)c1ccc([N+](=O)[O-])cc1`, the solubility (kinetic) amounted to 0.9 µg/mL (≈ 2.86 µM). The result for `CN(C)c1ccc(C(=O)N(Cc2ccccc2)Cc2ccccc2)cc1` reads less than 0.4 µg/mL; that for `O=C(CNC(=O)c1ccc(Br)cc1)Nc1ccc2c(c1)CCC2`, 2.5 µg/mL (≈ 6.7 µM); that for `O=C(/C=C/c1cccc(F)c1)Nc1cc(S(=O)(=O)N2CCOCC2)ccc1Cl`, 6.3 µg/mL (≈ 14.8 µM). `O=[N+]([O-])c1ccccc1/C=C/CN1CCCCC1CO` (stereo unspecified) had a kinetic solubility of 34.3 µg/mL (≈ 124 µM).

For `COC(=O)c1ccc(OCC(=O)NC2CCCCCCC2)cc1`, the kinetic solubility was greater than 47.9 µg/mL. Compound `C#CC1(OC(=O)c2ccccc2)CC(C)N(C)CC1C.Cl` (stereo unspecified) showed a kinetic solubility greater than 46.2 µg/mL. For `COC(=O)c1sc(C(C)(C)C)cc1CS(=O)(=O)c1ccccn1`, the kinetic solubility is 45.2 µg/mL (≈ 128 µM). In turn, `CCCCCCC(=O)Nc1ccc(S(=O)(=O)Nc2onc(C)c2C)cc1` displayed a kinetic solubility greater than 56.9 µg/mL.

With `CS(=O)(=O)Nc1ccccc1NS(C)(=O)=O`, the solubility (kinetic) is greater than 39.6 µg/mL. Take `COc1cccc(NC(=O)C(=S)NC2CCCCC2)c1`: the solubility (kinetic) was 1.3 µg/mL (≈ 4.45 µM).
